Source: US4303664A, “Novel penicillin derivatives containing a coumarin nucleus and medicines containing the same” (Teijin Limited, priority 1978, dated 1981)
In brackets after ≈: the same amount, converted by molar mass.

Key:
[1] = system: Enterobactor cloacae 147; experiment: Bactericidal test (MIC), Enterobactor cloacae 147; format: cell-based; conditions: (7) Enterobactor cloacae 147
Description: (§1) Results of bactericidal tests (MIC, r/ml) on the penicillin derivatives of this invention prepared in the above examples are shown in the following table.

[2] = system: Klebsiella neumoniae ATCC10031; experiment: Bactericidal test (MIC), Klebsiella neumoniae ATCC10031; format: cell-based; conditions: (6) Klebsiella neumoniae ATCC10031; read-out: MIC
Description: as §1

[3] = system: Enterobacter cloacae IF012937; experiment: Bactericidal test (MIC), Enterobacter cloacae IF012937; format: cell-based; conditions: (8) Enterobacter cloacae IF012937
Description: as §1

[4] = system: Pseudomonas aeruginosa 130; experiment: Bactericidal test (MIC), Pseudomonas aeruginosa 130; format: cell-based; conditions: (16) Pseudomonas aeruginosa 130
Description: as §1

[5] = system: Serratia G-18; experiment: Bactericidal test (MIC), Serratia G-18; format: cell-based; conditions: G18; (11) Serratia G-18; read-out: MIC
Description: as §1

[6] = system: Bacillus subtilis; experiment: Bactericidal test (MIC), Bacillus subtilis; format: cell-based; conditions: (3) Bacillus subtilis
Description: as §1

[7] = system: Escherichia Coli NIHJ JC-2; experiment: Bactericidal test (MIC), Escherichia Coli NIHJ JC-2; format: cell-based; conditions: NIHJJC2; (5) Escherichia Coli NIHJ JC-2
Description: as §1

[8] = system: Pseudomonas aeruginosa IFO-3080; experiment: Bactericidal test (MIC), Pseudomonas aeruginosa IFO-3080; format: cell-based; conditions: IFO3080; (12) Pseudomonas aeruginosa IFO-3080; read-out: MIC
Description: as §1

[9] = system: Pseudomonas aeruginosa 0-37; experiment: Bactericidal test (MIC), Pseudomonas aeruginosa 0-37; format: cell-based; conditions: 037; (13) Pseudomonas aeruginosa 0-37
Description: as §1

[10] = system: Salmonella typhimurium G-20; experiment: Bactericidal test (MIC), Salmonella typhimurium G-20; format: cell-based; conditions: Salmonella enterica; (4) Salmonella typhimurium G-20
Description: as §1

[11] = system: Pseudomonas aeruginosa Tid-53; experiment: Bactericidal test (MIC), Pseudomonas aeruginosa Tid-53; format: cell-based; conditions: TID53; (14) Pseudomonas aeruginosa Tid-53
Description: as §1

[12] = system: Staphylococcus aureus 209-p; experiment: Bactericidal test (MIC), Staphylococcus aureus 209-p; format: cell-based; conditions: (1) Staphylococcus aureus 209-p
Description: as §1

[13] = Acute toxicity values [(LD50), mouse]; conditions: in vivo
Description: Acute toxicity values [(LD50), mouse] of some penicillin derivatives of this invention are illustrated in the following table.

[14] = system: Pseudomonas aeruginosa GN-315; experiment: Bactericidal test (MIC), Pseudomonas aeruginosa GN-315; format: cell-based; conditions: GN315; (15) Pseudomonas aeruginosa GN-315
Description: as §1

[15] = system: Morganella var. G-2; experiment: Bactericidal test (MIC), Morganella var. G-2; format: cell-based; conditions: VAR.G2; (9) Morganella var. G-2; read-out: MIC
Description: as §1

[16] = system: Rettgerella var. Tid-21; experiment: Bactericidal test (MIC), Rettgerella var. Tid-21; format: cell-based; conditions: (10) Rettgerella var. Tid-21; read-out: MIC
Description: as §1

[17] = system: Staphylococcus aureus 1248; experiment: Bactericidal test (MIC), Staphylococcus aureus 1248; format: cell-based; conditions: (2) Staphylococcus aureus 1248; read-out: MIC
Description: as §1

[18] = Rates of protein fixation (human serum protein); format: in vitro ADME; conditions: read-out: Rate of protein fixation (converted)
Description: Rates of protein fixation (human serum protein) of the penicillin derivatives of this invention are illustrated as follows: […]

| Compound | MIC [1] | MIC [2] | MIC [3] | MIC [4] | MIC [5] | MIC [6] | MIC [7] | MIC [8] | MIC [9] | MIC [10] | MIC [11] | MIC [12] | LD50 ([13]; Oral) | LD50 ([13]; ip, Intraabdominal) | MIC [14] | MIC [15] | MIC [16] | MIC [17] | fraction unbound [18] |
| --- | --- | --- | --- | --- | --- | --- | --- | --- | --- | --- | --- | --- | --- | --- | --- | --- | --- | --- | --- |
| COc1cccc2cc(C(=O)N[C@@H](C(=O)N[C@@H]3C(=O)N4[C@@H]3SC(C)(C)[C@@H]4C(=O)O)c3ccc(O)cc3)c(=O)oc12 [Example 18, D(-)-α-(8-Methoxycoumarin-3-carbonamido)-p-hydroxylbenzylpenicillin] | 3.13 µg/mL (≈ 5.51 µM) | 0.8 µg/mL (≈ 1.41 µM) | 3.13 µg/mL (≈ 5.51 µM) | 1.56 µg/mL (≈ 2.75 µM) | 6.25 µg/mL (≈ 11 µM) | < 0.4 µg/mL | < 0.4 µg/mL | 0.8 µg/mL (≈ 1.41 µM) | 12.5 µg/mL (≈ 22 µM) | < 0.4 µg/mL | 3.13 µg/mL (≈ 5.51 µM) | < 0.4 µg/mL | > 4000 mg/kg | 2000 mg/kg | 3.13 µg/mL (≈ 5.51 µM) | 3.13 µg/mL (≈ 5.51 µM) | 3.13 µg/mL (≈ 5.51 µM) | 1.56 µg/mL (≈ 2.75 µM) | – |
| CC1(C)S[C@@H]2[C@H](NC(=O)[C@H](NC(=O)c3cc4cc(Br)ccc4oc3=O)c3ccccc3)C(=O)N2[C@H]1C(=O)O [Example 3, D(-)-α-(6-Bromocoumarin-3-carbonamido)benzylpenicillin] | 3.13 µg/mL (≈ 5.21 µM) | 1.56 µg/mL (≈ 2.6 µM) | 25 µg/mL (≈ 41.6 µM) | 1.56 µg/mL (≈ 2.6 µM) | 25 µg/mL (≈ 41.6 µM) | < 0.4 µg/mL | < 0.4 µg/mL | 1.56 µg/mL (≈ 2.6 µM) | 25 µg/mL (≈ 41.6 µM) | < 0.4 µg/mL | 6.25 µg/mL (≈ 10.4 µM) | < 0.4 µg/mL | – | – | 6.25 µg/mL (≈ 10.4 µM) | 6.25 µg/mL (≈ 10.4 µM) | 6.25 µg/mL (≈ 10.4 µM) | 1.56 µg/mL (≈ 2.6 µM) | 0.2 |
| CC1(C)S[C@@H]2[C@H](NC(=O)[C@H](NC(=O)c3cc4ccccc4oc3=O)c3ccc(O)cc3)C(=O)N2[C@H]1C(=O)O [Example 16, D(-)-α-(Coumarin-3-carbonamido)-p-hydroxybenzylpenicillin] | 6.25 µg/mL (≈ 11.6 µM) | 6.25 µg/mL (≈ 11.6 µM) | 25 µg/mL (≈ 46.5 µM) | 1.56 µg/mL (≈ 2.9 µM) | 50 µg/mL (≈ 93 µM) | < 0.4 µg/mL | < 0.4 µg/mL | 0.8 µg/mL (≈ 1.49 µM) | 25 µg/mL (≈ 46.5 µM) | < 0.4 µg/mL | 6.25 µg/mL (≈ 11.6 µM) | < 0.4 µg/mL | – | – | 3.13 µg/mL (≈ 5.82 µM) | 12.5 µg/mL (≈ 23.3 µM) | 1.56 µg/mL (≈ 2.9 µM) | 1.56 µg/mL (≈ 2.9 µM) | 0.55 |
| COc1ccc2cc(C(=O)N[C@@H](C(=O)N[C@@H]3C(=O)N4[C@@H]3SC(C)(C)[C@@H]4C(=O)O)c3ccccc3)c(=O)oc2c1 [Example 8, D(-)-α-(7-Methoxycoumarin-3-carbonamido)benzylpenicillin] | 1.56 µg/mL (≈ 2.83 µM) | < 0.4 µg/mL | 6.25 µg/mL (≈ 11.3 µM) | 3.13 µg/mL (≈ 5.67 µM) | 12.5 µg/mL (≈ 22.7 µM) | < 0.4 µg/mL | < 0.4 µg/mL | 1.56 µg/mL (≈ 2.83 µM) | 25 µg/mL (≈ 45.3 µM) | < 0.4 µg/mL | 3.13 µg/mL (≈ 5.67 µM) | < 0.4 µg/mL | – | – | 3.13 µg/mL (≈ 5.67 µM) | 3.13 µg/mL (≈ 5.67 µM) | 6.25 µg/mL (≈ 11.3 µM) | < 0.4 µg/mL | – |
| CC1(C)S[C@@H]2[C@H](NC(=O)[C@H](NC(=O)c3cc4cc(O)ccc4oc3=O)c3ccccc3)C(=O)N2[C@H]1C(=O)O [Example 10, D(-)-α-(6-Hydroxycoumarin-3-carbonamido)benzylpenicillin] | 3.13 µg/mL (≈ 5.82 µM) | 0.8 µg/mL (≈ 1.49 µM) | 100 µg/mL (≈ 186 µM) | 3.13 µg/mL (≈ 5.82 µM) | 12.5 µg/mL (≈ 23.3 µM) | < 0.4 µg/mL | < 0.4 µg/mL | 1.56 µg/mL (≈ 2.9 µM) | 25 µg/mL (≈ 46.5 µM) | < 0.4 µg/mL | 6.25 µg/mL (≈ 11.6 µM) | < 0.4 µg/mL | – | – | 3.13 µg/mL (≈ 5.82 µM) | 6.25 µg/mL (≈ 11.6 µM) | 6.25 µg/mL (≈ 11.6 µM) | 1.56 µg/mL (≈ 2.9 µM) | – |
| CC1(C)S[C@@H]2[C@H](NC(=O)[C@H](NC(=O)c3cc4ccccc4oc3=O)c3ccccc3)C(=O)N2[C@H]1C(=O)O [Example 1, D(-)-α-(Coumarin-3-carbonamido)benzylpenicillin] | 3.13 µg/mL (≈ 6 µM) | < 0.4 µg/mL | 6.25 µg/mL (≈ 12 µM) | < 0.4 µg/mL | 12.5 µg/mL (≈ 24 µM) | < 0.4 µg/mL | < 0.4 µg/mL | < 0.4 µg/mL | 12.5 µg/mL (≈ 24 µM) | < 0.4 µg/mL | 3.13 µg/mL (≈ 6 µM) | < 0.4 µg/mL | > 4000 mg/kg | – | 1.56 µg/mL (≈ 2.99 µM) | 3.13 µg/mL (≈ 6 µM) | 1.56 µg/mL (≈ 2.99 µM) | 1.56 µg/mL (≈ 2.99 µM) | – |
| CC1(C)S[C@@H]2[C@H](NC(=O)[C@H](NC(=O)c3cc4ccc(O)cc4oc3=O)c3ccccc3)C(=O)N2[C@H]1C(=O)O [Example 11, D(-)-α-(7-Hydroxycoumarin-3-carbonamido)benzylpenicillin] | 12.5 µg/mL (≈ 23.3 µM) | 12.5 µg/mL (≈ 23.3 µM) | 12.5 µg/mL (≈ 23.3 µM) | 6.25 µg/mL (≈ 11.6 µM) | 200 µg/mL (≈ 372 µM) | < 0.4 µg/mL | < 0.4 µg/mL | 3.13 µg/mL (≈ 5.82 µM) | 100 µg/mL (≈ 186 µM) | < 0.4 µg/mL | 25 µg/mL (≈ 46.5 µM) | < 0.4 µg/mL | – | – | 12.5 µg/mL (≈ 23.3 µM) | 50 µg/mL (≈ 93 µM) | 25 µg/mL (≈ 46.5 µM) | 6.25 µg/mL (≈ 11.6 µM) | – |
| CC(=O)Oc1ccc2cc(C(=O)N[C@@H](C(=O)N[C@@H]3C(=O)N4[C@@H]3SC(C)(C)[C@@H]4C(=O)O)c3ccccc3)c(=O)oc2c1 [Example 12, D(-)-α-(7-Acetoxycoumarin-3-carbonamido)benzylpenicillin] | 12.5 µg/mL (≈ 21.6 µM) | 12.5 µg/mL (≈ 21.6 µM) | 100 µg/mL (≈ 173 µM) | 1.56 µg/mL (≈ 2.69 µM) | 100 µg/mL (≈ 173 µM) | < 0.4 µg/mL | < 0.4 µg/mL | 1.56 µg/mL (≈ 2.69 µM) | 50 µg/mL (≈ 86.3 µM) | < 0.4 µg/mL | 6.25 µg/mL (≈ 10.8 µM) | < 0.4 µg/mL | – | – | 6.25 µg/mL (≈ 10.8 µM) | 25 µg/mL (≈ 43.1 µM) | 12.5 µg/mL (≈ 21.6 µM) | 3.13 µg/mL (≈ 5.4 µM) | – |
| Cc1ccc2oc(=O)c(C(=O)N[C@@H](C(=O)N[C@@H]3C(=O)N4[C@@H]3SC(C)(C)[C@@H]4C(=O)O)c3ccccc3)c(C)c2c1 [Example 5, D(-)-α-(4,6-Dimethylcoumarin-3-carbonamido)benzylpenicillin] | 100 µg/mL (≈ 182 µM) | 0.8 µg/mL (≈ 1.46 µM) | 50 µg/mL (≈ 91 µM) | 12.5 µg/mL (≈ 22.7 µM) | 50 µg/mL (≈ 91 µM) | < 0.4 µg/mL | < 0.4 µg/mL | 12.5 µg/mL (≈ 22.7 µM) | 200 µg/mL (≈ 364 µM) | < 0.4 µg/mL | 50 µg/mL (≈ 91 µM) | < 0.4 µg/mL | – | – | 50 µg/mL (≈ 91 µM) | 25 µg/mL (≈ 45.5 µM) | 25 µg/mL (≈ 45.5 µM) | 1.56 µg/mL (≈ 2.84 µM) | – |
